Data published in patent US20100217003A1, “1,2,3,4-TETRAHYDROISOQUINOLINE DERIVATIVES HAVING EFFECTS OF PREVENTING AND TREATING DEGENERATIVE AND INFLAMMATORY DISEASES” (priority 2006, published 2010).
pIC50: −log10 of the molar value.

How the values were obtained:
[1] = tested on: BV-2 cell; assay: Production of NADPH oxidase-derived superoxide in LPS-stimulated BV-2 cells (WST-1); format: cell-based, mouse
Description: Measurement of Superoxide Production
BV-2 microglial cells were planted in a 96-well Petri dish at 0.5×10^5 cells/ml. After a 24-hour culture, the cells were washed twice with Hank's balanced salt solution (HBSS) without phenol red and treated with EHMTIQ (11a) and WST-1. However, some samples were not treated with 20 ? superoxide dismutase (SOD; 800 UI/ml). All samples were incubaed at 37° C. for 10 minutes. The absorbance of a sample was read at 450 nm using a SpectraMax Plus microplate spectrophotometer. The yield of superoxide was calculated according to difference in absorbance value between the samples with and without SOD.
The activation of a microglial cell led to the activation of NADPH oxidase and the production of superoxide. Accordingly, the assay was performed to determine whether EHMTIQ (11a) affects production of NADPH oxidase-derived superoxide. The LPS-stimulated BV-2 cell samples were treated with various concentrations of EHMTIQ (11a) and then the level of released superoxide was measured. The results are illustrated in FIG. 2.

[2] = tested on: mouse model of Parkinson's disease induced by MPTP; assay: Mouse model of Parkinson's disease induced by MPTP (immunostaining of substantia nigra and striatum); format: in vivo
[3] = tested on: BV-2 cell; assay: Inhibitory effect on NO production in LPS-stimulated BV-2 microglial cells (Griess); format: cell-based, mouse
Description: BV-2 microglial cell line, CATH.a neuron line and SK-N-BE(2)C neuron line were cultured in Dulbecco's modified Eagle's medium (DMEM) supplemented with 10% bovine serum, […] penicillin, and 10 ? /ml streptomycin at 37° C. in an atmosphere of 5% CO2 and 95% air. The cells were planted on a polystyrene petri dish at the following densities: BV-2 (2.5×10^5 cells/24 well or 2.6×10^6 cells/60 mm dish; SK− N-BE(2)C (1.5×10^5 cells/24 well); and CATH.a (2.4×10^4 cells/96 well).
Measurement of NO Production
200 ? of cell culture medium fraction and 100 ? of Griess reagent (2.5% […], 1% sulfanilamide and 0.1% naphthylethylenediamine dihydrochloride) were mixed in a 96-well microtiter plate, and the absorbance of a sample was read at 540 nm using a microtiter plate reader (multi-well spectrophotometer). The concentration of nitrite was calculated using a standard curve for sodium nitrite.
To determine whether EHMTIQ (11a) inhibits NO production in an activated […] cell, a mouse microglial cell line, BV-2, was used in this assay. Lipopolysaccharide (LPS)-stimulated BV-2 cell samples were treated with various concentrations of EHMTIQ (11a) and then the NO level of a sample was measured. The results are illustrated in FIG. 1.

[4] = tested on: GTPCH mRNA; assay: Expression of GTPCH genes in LPS-stimulated BV-2 cells (RT-PCR); format: cell-based, mouse
Description: (§1) RT-PCR for GTPCH, iNOS, TNF-α, IL-1β and COX-2
(§2) 5 ? each of total RNA samples isolated from BV-2 cells were subjected to reverse-transcription (RT), and then polymerase chain reaction (PCR) for 30 cycles under the conditions of 94° C. for 30 seconds, 60° C. for 40 seconds and 72° C. for one minute. Primers used in the PCR were as follows: iNOS (forward, ATGTCCGAAG-CAAACATCAC; reverse, TAATGTC CAGGAAGTAGGTG), TNF-α (forward, CA-[…] reverse, CAGAGCAATGACTC-CAAAGTAGACCT), IL-1β (forward, […]; reverse, CAGGACAGGTAT AGATTCTTTCCTTT), COX-2 (forward, […]; reverse, […]), GTPCH (forward, GGATACCAGGAGACCAT CTCA; reverse, TAGCATGGTGC-TAGTGACAGT). RT-PCR for B2M was simultaneously performed as internal control. The PCR products were subjected to electrophoresis in a 1.5% agarose gel, thereby confirming the presence of a desired size of single band.
GTP cyclohydrolase I (GTPCH) is a rate-limiting enzyme in the synthesis of tetrahydrobiopterin (BH4) which is essential for iNOS catalysis. Accordingly, the down regulation of GTPCH may lower NO production. The assay was performed to determine whether EHMTIQ (11a) affects the expression of GTPCH genes induced by LPS. The LPS-stimulated BV-2 cell samples were treated with various concentrations of EHMTIQ (11a) and the expression of GTPCH genes was estimated by RT-PCR. The results are illustrated in FIG. 7.

[5] = tested on: iNOS mRNA; assay: Expression of iNOS genes in LPS-stimulated BV-2 cells (RT-PCR); format: cell-based, mouse
Description: as §1, §2
The assay was performed to determine whether EHMTIQ (11a) affects the expression of iNOS genes. LPS-stimulated BV-2 cell samples were treated with various concentrations of EHMTIQ (11a), and the expression of iNOS gene was estimated by RT-PCR. The results are illustrated in FIG. 6.

[6] = tested on: mouse liver cell; assay: Toxicity to mouse liver cell; format: in vivo; conditions: FIG. 16
[7] = Drug stability against liver microsomal enzymes; format: in vitro ADME, rat
Description: Evaluation for Drug Stability
1 mM EHMTIQ (11a) was added to 1 mg samples of white rat liver microsomes, and the samples were incubated at 37° C. for 0, 30, 120 and 240 minutes in the presence of a NADPH-regeneration system (2.6 mM β-NADP^+, 10 mM glucose-6-phosphate, 4 UI/ml glucose-6-phosphate dehydrogenase and 10 mM MgCl2). Perchloric acid was added to the sample to make a final concentration of 500 mM and then the reaction was stopped. The reaction mixture was centrifuged at 16,000×g for 20 minutes. The supernatant solution (120 l) was purified using a Waters HPLC system [717 plus autosampler, 515 pump, and Symmetry C18 column (4.6 mm×150 mm, […])] using a 5-30% linear gradient of acetonitrile as mobile phase. EHMTIQ (11a) was detected at 254 nm using a Waters 486 UV detector and analyzed using EMPOWER software (Millipore Corporation, Milford, Mass., USA).
Since almost all micromolecules are degraded by enzymes in the liver, the stability of a medicine to these enzymes is very important. To evaluate bioavailability of EHMTIQ (11a) in vivo, the degradation rate of EHMTIQ (11a) by liver microsomal enzyme was measured, and neutralized to remaining EHMTIQ after exposure to liver microsomes.

[8] = tested on: BV-2 cell; assay: Cytotoxicity of single treatment in BV-2 cells; format: cell-based, mouse; conditions: single treatment (not illustrated)

## CCC(=O)N1CCc2cc(OC)c(O)cc2C1 [EHMTIQ (11a), 2-ethylcarbonyl-7-hydroxy-6-methoxy-1,2,3,4-tetrahydroisoquinoline]
[1]; 5 (unit as image)
  superoxide production: 62±3.1%
[1]; 10 (unit as image)
  superoxide production: 65±3.1%
[2]; MPTP mouse (FIG. 13)
  activation of microglial cells in the substantia nigra (Iba-1 immunostaining): inhibitory effect
[2]; MPTP mouse (FIG. 14)
  dopaminergic neurons in the substantia nigra (TH immunostaining): protective effect
[2]; MPTP mouse (FIG. 14, right panels)
  degeneration of dopaminergic neurons in the substantia nigra (fluoroJade C and TH double labelling): inhibitory effect
[2]; MPTP mouse (FIG. 15)
  dopamine nerve terminals in the striatum (TH immunostaining): protective effect
[3]; 5 (concentration unit printed as image)
  NO production induced by LPS, compared with the control not treated with EHMTIQ: 63±4%
[3]; 100 (concentration unit printed as image)
  NO production: inhibit NO production to the control level
[3]; Mus musculus, unit printed as image
  pIC50: 5.55
[4]; 2.5 (unit as image)
  gene expression of GTPCH: 17±1%
[4]; 100 (unit as image)
  gene expression of GTPCH: 75±1%
[5]; 5 (unit as image)
  expression of iNOS genes compared to the control only treated with LPS: 82±1%
[5]; 100 (unit as image)
  expression of iNOS genes compared to the control only treated with LPS: 24±1%
[6]
  toxicity to a mouse liver cell: non-toxicity
[7]; 2-hour exposure to liver microsomes
  EHMTIQ degraded: about 12.52%
[7]; 30-minute exposure to liver microsomes
  EHMTIQ remained: ~95%
[7]; liver microsomes, NADPH-regeneration system
  degeneration rate of EHMTIQ: 1.115±0.203 nmole (EHMTIQ)/min/mg (liver microsomal protein)
[8]
  cytotoxicity: did not exhibit any cytotoxicity
